Reference: article PMC8282008, “Brigatinib causes tumor shrinkage in both NF2-deficient meningioma and schwannoma through inhibition of multiple tyrosine kinases but not ALK” (PLoS ONE, 2021)

Experiments:
Assay type in all cases: cell-based
[1] = target: T1, FAK1 (PTK2, focal adhesion kinase 1) (Homo sapiens, UniProt Q05397); assay: NanoBRET TE intracellular kinase assay with K-10 tracer in HEK293T cells
T1 construct: NanoLuc fusion (Promega NV1921)

[2] = target: FAK2 (PTK2B) (Homo sapiens, UniProt Q14289); assay: MIB/MS kinome profiling, HS01/HS11 Schwann cells, […] (text: lysate treatment; legend: cells treated […] h)
Sequence of FAK2 (PTK2B) (Q14289 whole entry): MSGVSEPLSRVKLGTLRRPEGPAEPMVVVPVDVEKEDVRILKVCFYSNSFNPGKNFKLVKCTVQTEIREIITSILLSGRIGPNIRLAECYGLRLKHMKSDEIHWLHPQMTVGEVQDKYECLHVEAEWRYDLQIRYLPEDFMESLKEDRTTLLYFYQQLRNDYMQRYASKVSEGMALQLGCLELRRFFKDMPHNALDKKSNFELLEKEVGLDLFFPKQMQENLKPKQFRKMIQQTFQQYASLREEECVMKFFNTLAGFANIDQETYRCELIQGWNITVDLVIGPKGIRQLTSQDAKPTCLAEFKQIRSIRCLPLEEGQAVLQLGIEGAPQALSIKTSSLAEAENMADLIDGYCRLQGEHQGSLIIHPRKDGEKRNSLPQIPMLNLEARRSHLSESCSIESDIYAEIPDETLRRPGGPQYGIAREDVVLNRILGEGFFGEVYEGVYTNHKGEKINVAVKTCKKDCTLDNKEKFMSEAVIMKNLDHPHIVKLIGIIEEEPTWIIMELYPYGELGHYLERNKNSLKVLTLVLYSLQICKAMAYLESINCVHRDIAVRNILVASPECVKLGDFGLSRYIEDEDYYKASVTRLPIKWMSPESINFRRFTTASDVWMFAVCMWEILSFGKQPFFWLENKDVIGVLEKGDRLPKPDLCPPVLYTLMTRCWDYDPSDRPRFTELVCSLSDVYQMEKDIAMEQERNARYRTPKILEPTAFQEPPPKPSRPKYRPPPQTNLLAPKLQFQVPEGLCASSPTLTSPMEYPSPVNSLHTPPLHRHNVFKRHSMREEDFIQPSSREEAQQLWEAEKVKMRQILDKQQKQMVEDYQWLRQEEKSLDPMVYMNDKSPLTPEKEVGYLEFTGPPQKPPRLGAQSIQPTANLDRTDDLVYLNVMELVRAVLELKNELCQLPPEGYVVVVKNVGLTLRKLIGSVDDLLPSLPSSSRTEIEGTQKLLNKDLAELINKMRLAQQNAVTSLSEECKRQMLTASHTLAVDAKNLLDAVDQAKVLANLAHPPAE

[3] = target: T2, TNK2 (ACK1, Activated Cdc42-associated kinase) (Homo sapiens, UniProt Q07912); assay: NanoBRET TE intracellular kinase assay with K-10 tracer in HEK293T cells
T2 construct: NanoLuc fusion (Promega NV4451)
T2 sequence (Q07912 whole entry, the tested form may be a part): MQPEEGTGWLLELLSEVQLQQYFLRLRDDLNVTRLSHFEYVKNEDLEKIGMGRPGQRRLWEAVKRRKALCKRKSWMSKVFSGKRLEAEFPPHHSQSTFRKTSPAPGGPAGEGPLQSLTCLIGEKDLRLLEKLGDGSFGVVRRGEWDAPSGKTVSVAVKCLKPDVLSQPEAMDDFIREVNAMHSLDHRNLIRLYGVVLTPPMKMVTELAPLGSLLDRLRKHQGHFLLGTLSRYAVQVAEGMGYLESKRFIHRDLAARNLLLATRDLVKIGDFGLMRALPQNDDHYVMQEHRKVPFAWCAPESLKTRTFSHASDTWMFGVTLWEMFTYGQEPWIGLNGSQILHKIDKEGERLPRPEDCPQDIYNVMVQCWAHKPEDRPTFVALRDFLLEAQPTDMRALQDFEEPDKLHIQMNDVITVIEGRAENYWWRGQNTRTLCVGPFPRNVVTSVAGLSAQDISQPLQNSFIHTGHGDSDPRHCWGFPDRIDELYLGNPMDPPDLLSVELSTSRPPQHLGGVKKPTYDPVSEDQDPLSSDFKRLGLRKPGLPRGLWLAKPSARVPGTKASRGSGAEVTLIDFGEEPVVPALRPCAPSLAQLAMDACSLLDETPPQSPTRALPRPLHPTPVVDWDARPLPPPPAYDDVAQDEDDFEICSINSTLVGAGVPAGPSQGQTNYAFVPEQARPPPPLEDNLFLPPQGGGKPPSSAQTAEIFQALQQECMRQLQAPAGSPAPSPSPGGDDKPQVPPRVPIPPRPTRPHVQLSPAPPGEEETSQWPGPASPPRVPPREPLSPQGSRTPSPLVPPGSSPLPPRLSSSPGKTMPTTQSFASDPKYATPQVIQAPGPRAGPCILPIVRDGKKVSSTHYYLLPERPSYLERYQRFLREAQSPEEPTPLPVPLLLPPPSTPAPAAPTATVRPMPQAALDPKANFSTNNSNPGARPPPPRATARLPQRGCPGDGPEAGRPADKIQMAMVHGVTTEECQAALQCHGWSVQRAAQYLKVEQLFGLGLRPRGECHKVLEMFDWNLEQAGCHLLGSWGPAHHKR

[4] = target: T3, FER (Fps/Fes-related kinase) (Homo sapiens, UniProt P16591); assay: as above
T3 construct: NanoLuc fusion (Promega NV1331)
T3 sequence (P16591 whole entry, the tested form may be a part): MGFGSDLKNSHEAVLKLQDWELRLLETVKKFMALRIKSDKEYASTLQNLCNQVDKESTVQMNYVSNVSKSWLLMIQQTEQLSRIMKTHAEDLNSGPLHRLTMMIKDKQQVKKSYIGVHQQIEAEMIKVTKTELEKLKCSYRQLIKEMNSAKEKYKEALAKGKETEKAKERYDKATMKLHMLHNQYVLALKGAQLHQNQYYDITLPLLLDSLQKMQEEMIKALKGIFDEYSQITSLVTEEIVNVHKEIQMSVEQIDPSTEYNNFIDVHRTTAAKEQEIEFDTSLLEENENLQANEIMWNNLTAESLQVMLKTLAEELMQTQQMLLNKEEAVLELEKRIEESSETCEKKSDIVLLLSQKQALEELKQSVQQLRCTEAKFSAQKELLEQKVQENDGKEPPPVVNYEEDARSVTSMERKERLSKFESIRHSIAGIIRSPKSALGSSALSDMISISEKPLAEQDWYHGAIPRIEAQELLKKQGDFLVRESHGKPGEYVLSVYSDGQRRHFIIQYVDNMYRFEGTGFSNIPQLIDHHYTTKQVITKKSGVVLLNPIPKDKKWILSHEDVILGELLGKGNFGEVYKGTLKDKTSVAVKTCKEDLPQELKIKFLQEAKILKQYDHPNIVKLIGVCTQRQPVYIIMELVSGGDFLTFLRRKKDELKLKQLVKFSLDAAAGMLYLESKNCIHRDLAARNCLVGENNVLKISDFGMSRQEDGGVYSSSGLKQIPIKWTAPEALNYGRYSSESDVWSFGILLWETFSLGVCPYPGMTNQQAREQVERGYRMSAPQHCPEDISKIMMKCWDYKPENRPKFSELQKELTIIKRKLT

[5] = target: T4, GAK (Cyclin G-associated kinase) (Homo sapiens, UniProt O14976); assay: as above
T4 construct: NanoLuc fusion (Promega NV1421)
T4 sequence (O14976 1-1311): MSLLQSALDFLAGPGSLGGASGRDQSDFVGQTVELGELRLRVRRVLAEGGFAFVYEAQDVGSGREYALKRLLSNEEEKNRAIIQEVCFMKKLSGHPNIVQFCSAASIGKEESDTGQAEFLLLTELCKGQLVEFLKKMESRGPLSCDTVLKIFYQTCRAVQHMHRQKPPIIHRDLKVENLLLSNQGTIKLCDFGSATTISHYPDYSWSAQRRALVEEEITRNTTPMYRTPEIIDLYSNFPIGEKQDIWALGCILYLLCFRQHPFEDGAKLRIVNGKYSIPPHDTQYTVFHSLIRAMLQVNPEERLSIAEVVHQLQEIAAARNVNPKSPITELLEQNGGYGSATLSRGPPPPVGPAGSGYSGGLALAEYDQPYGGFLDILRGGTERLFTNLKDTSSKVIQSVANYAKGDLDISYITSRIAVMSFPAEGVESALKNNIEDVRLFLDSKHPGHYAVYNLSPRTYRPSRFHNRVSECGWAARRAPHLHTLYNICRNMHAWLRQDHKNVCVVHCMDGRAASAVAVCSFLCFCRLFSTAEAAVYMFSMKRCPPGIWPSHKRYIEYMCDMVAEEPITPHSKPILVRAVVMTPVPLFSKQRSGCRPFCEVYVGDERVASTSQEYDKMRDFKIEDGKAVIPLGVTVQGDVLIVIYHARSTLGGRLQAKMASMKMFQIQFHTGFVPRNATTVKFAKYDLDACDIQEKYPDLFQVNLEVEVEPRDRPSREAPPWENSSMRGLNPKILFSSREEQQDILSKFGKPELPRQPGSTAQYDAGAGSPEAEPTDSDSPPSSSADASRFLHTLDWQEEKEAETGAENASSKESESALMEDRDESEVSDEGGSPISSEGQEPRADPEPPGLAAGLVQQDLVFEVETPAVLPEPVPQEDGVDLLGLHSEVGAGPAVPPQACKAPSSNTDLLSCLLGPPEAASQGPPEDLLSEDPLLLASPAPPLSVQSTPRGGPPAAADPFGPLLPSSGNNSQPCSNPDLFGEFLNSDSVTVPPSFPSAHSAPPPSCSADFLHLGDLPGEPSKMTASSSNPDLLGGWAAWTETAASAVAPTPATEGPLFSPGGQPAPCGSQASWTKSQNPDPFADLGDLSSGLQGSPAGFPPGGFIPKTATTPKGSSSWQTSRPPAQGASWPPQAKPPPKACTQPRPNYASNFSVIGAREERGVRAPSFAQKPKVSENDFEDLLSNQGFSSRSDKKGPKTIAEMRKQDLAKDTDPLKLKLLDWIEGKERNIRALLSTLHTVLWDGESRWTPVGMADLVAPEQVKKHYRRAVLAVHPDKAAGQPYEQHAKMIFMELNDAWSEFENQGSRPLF

T1 sequence (Q05397 2-1052): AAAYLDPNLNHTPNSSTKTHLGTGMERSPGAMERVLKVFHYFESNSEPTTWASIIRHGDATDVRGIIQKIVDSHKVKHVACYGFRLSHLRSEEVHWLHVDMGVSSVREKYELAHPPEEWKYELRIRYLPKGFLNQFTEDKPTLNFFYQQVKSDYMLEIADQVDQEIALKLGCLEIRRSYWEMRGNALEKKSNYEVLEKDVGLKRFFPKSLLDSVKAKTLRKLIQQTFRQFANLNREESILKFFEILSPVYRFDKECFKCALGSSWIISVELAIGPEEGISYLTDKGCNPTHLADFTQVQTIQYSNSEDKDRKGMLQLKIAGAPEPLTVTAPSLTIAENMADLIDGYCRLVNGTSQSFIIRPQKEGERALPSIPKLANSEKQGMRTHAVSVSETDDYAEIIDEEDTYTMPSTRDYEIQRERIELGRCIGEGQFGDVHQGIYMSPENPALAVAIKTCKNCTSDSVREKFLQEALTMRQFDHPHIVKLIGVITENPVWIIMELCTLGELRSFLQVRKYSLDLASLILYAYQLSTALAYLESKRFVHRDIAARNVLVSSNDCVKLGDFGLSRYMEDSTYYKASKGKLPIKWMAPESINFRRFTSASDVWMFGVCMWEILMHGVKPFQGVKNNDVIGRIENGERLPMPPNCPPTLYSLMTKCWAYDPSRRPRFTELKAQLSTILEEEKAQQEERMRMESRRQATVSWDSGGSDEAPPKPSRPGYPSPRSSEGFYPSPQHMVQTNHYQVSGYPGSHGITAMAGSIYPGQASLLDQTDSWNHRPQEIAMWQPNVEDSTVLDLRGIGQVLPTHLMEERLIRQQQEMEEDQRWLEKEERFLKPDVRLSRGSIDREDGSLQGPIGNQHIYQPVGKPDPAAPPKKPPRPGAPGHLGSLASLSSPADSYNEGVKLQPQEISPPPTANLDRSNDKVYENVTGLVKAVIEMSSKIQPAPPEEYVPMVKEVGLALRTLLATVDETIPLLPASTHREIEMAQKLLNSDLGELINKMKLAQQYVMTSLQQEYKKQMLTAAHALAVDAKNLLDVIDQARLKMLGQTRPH

IC50 [1]: 573 nM
IC50 [3]: 350 nM
IC50 [4]: 304 nM
IC50 [5]: 155 nM
SMILES: COc1cc(N2CCC(N3CCN(C)CC3)CC2)ccc1Nc1ncc(Cl)c(Nc2ccccc2P(C)(C)=O)n1 [brigatinib]
MIB/MS kinome profiling, HS01/HS11 Schwann cells, 1 uM (text: lysate treatment;) [2]: kinases with the largest reduction in binding were FER, TNK2, FAK1 (PTK2) and FAK2 (PTK2B)
